According to patent US11370763B2, “Compounds and compositions for treating conditions associated with NLRP activity” (Novartis AG, priority 2017, dated 2022):

Tested on: IL-1β production in PMA-differentiated THP-1 cells
Assay: IL-1β production in PMA-differentiated THP-1 cells stimulated with gramicidin (hTHP-1 assay containing 2% fetal bovine serum; Procedures 1-3)
Assay type: cell-based, human
Settings: Homo sapiens, THP-1, hTHP-1 assay containing 2% fetal bovine serum; class symbols; read-out: hTHP-1 IC50 (Average IC50 of compounds in hTHP-1 assay)
How it was run: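 THP-1 cells differentiated with PMA (20 ng/ml, 16-18 h), replated in 2% FBS RPMI (50,000 cells/well), preincubated 1 h with compound (top final 100 μM, 3-fold steps, 0.37% DMSO), then stimulated 2 h with gramicidin (5 μM). Supernatant IL-1β measured by HTRF.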

Structure (SMILES) | IC50
CC(C)c1cc(-n2cccn2)cc(C(C)C)c1CC(=O)N=S(N)(=O)c1cnc(C(C)(C)O)s1 (stereo not drawn) [Example 107, N-(amino(2-(2-hydroxypropan-2-yl)thiazol-5-yl)(oxo)-λ^6-sulfaneylidene)-2-(2,6-diisopropyl-4-(1H-pyrazol-1-yl)phenyl)acetamide] | 5 to 30 µM
CC(C)c1ccc(C#N)c(C(C)C)c1CC(=O)N=S(N)(=O)c1cnc(C(C)(C)O)s1 (stereo not drawn) [Example 114, N-(amino(2-(2-hydroxypropan-2-yl)thiazol-5-yl)(oxo)-λ^6-sulfaneylidene)-2-(3-cyano-2,6-diisopropylphenyl)acetamide] | 1 to 5 µM
COc1ccc2cc(-c3cc(C(C)C)c(CC(=O)N=S(N)(=O)c4cnc(C(C)(C)O)s4)c(C(C)C)c3)ccc2c1 (stereo not drawn) [Example 116, N-(amino(2-(2-hydroxypropan-2-yl)thiazol-5-yl)(oxo)-λ^6-sulfaneylidene)-2-(2,6-diisopropyl-4-(6-methoxynaphthalen-2-yl)phenyl)acetamide] | 5 to 30 µM
CC(C)c1ccc(C#N)c(C(C)C)c1CC(=O)N=S(N)(=O)c1nc(C(C)(C)O)cs1 (stereo not drawn) [Example 120, N-(amino(4-(2-hydroxypropan-2-yl)thiazol-2-yl)(oxo)-λ^6-sulfaneylidene)-2-(3-cyano-2,6-diisopropylphenyl)acetamide] | 0.2 to 1 µM
Cc1ccc(-c2cc(C(C)C)c(CC(=O)N=S(N)(=O)c3ncc(C(C)(C)O)s3)c(C(C)C)c2)cc1C (stereo not drawn) [Example 121, N-(amino(5-(2-hydroxypropan-2-yl)thiazol-2-yl)(oxo)-λ^6-sulfaneylidene)-2-(3,5-diisopropyl-3′,4′-dimethyl-[1,1′-biphenyl]-4-yl)acetamide] | 0.2 to 1 µM
CC(C)c1cc(-c2ccc(Cl)c(Cl)c2)cc(C(C)C)c1CC(=O)N=S(N)(=O)c1ncc(C(C)(C)O)s1 (stereo not drawn) [Example 122, N-(amino(5-(2-hydroxypropan-2-yl)thiazol-2-yl)(oxo)-λ^6-sulfaneylidene)-2-(3′,4′-dichloro-3,5-diisopropyl-[1,1′-biphenyl]-4-yl)acetamide] | 0.2 to 1 µM
CC(C)c1cc(C#N)c(F)c(C(C)C)c1CC(=O)N=S(N)(=O)c1cnc(C(C)(C)O)s1 (stereo not drawn) [Example 123, N-(amino(2-(2-hydroxypropan-2-yl)thiazol-5-yl)(oxo)-λ^6-sulfaneylidene)-2-(4-cyano-3-fluoro-2,6-diisopropylphenyl)acetamide] | 0.2 to 1 µM
CC(C)c1cc(F)c(F)c(C(C)C)c1CC(=O)N=S(N)(=O)c1nc(C(C)(C)O)cs1 (stereo not drawn) [Example 124, N-(amino(4-(2-hydroxypropan-2-yl)thiazol-2-yl)(oxo)-λ^6-sulfaneylidene)-2-(3,4-difluoro-2,6-diisopropylphenyl)acetamide] | 0.2 to 1 µM
CC(C)c1ccc(F)c(C(C)C)c1CC(=O)N=S(N)(=O)c1ccc(C(C)(C)O)s1 (stereo not drawn) [Example 125, N-(amino(5-(2-hydroxypropan-2-yl)thiophen-2-yl)(oxo)-λ^6-sulfaneylidene)-2-(3-fluoro-2,6-diisopropylphenyl)acetamide] | 0.2 to 1 µM
COc1ccc2cc(-c3cc(C(C)C)c(CC(=O)N=S(N)(=O)c4ncc(C(C)(C)O)s4)c(C(C)C)c3)ccc2c1 (stereo not drawn) [Example 126, N-(amino(5-(2-hydroxypropan-2-yl)thiazol-2-yl)(oxo)-λ^6-sulfaneylidene)-2-(2,6-diisopropyl-4-(6-methoxynaphthalen-2-yl)phenyl)acetamide] | 0.2 to 1 µM
CC(C)c1cc(F)cc(C(C)C)c1CC(=O)N=S(N)(=O)c1ncc(C(C)(C)C(=O)O)s1 (stereo not drawn) [Example 127, 2-(2-(N′-(2-(4-fluoro-2,6-diisopropylphenyl)acetyl)sulfamidimidoyl)thiazol-5-yl)-2-methylpropanoic acid] | 5 to 30 µM
CC(C)c1c(F)c(C#N)cc(C2CC2)c1CC(=O)N=S(N)(=O)c1ccc(CN(C)C)cc1F (stereo not drawn) [Example 128, N-(amino(4-((dimethylamino)methyl)-2-fluorophenyl)(oxo)-λ^6-sulfaneylidene)-2-(4-cyano-6-cyclopropyl-3-fluoro-2-isopropylphenyl)acetamide] | 0.2 to 1 µM
CC(C)c1ccc(F)c(C(C)C)c1CC(=O)N=S(N)(=O)c1ncc(C(C)(C)O)s1 (stereo not drawn) [Example 130, N-(amino(5-(2-hydroxypropan-2-yl)thiazol-2-yl)(oxo)-λ^6-sulfaneylidene)-2-(3-fluoro-2,6-diisopropylphenyl)acetamide] | 1 to 5 µM
CC(C)c1cc2c(c(C(C)C)c1CC(=O)N=S(N)(=O)c1cnc(C(C)(C)O)s1)COC2 (stereo not drawn) [Example 132, N-(amino(2-(2-hydroxypropan-2-yl)thiazol-5-yl)(oxo)-λ^6-sulfaneylidene)-2-(4,6-diisopropyl-1,3-dihydroisobenzofuran-5-yl)acetamide] | 1 to 5 µM
CC(C)c1cc(C#N)c(F)c(C(C)C)c1CC(=O)N=S(N)(=O)c1nc(C(C)(C)O)cs1 (stereo not drawn) [Example 133, N-(amino(4-(2-hydroxypropan-2-yl)thiazol-2-yl)(oxo)-λ^6-sulfaneylidene)-2-(4-cyano-3-fluoro-2,6-diisopropylphenyl)acetamide] | 0.2 to 1 µM
CC(C)c1cc2c(c(C(C)C)c1CC(=O)N=S(N)(=O)c1ccc(CN(C)C)cc1)COC2 (stereo not drawn) [Example 134] | 1 to 5 µM
CC(C)c1ccc2c(c1CC(=O)N=S(N)(=O)c1cnc(C(C)(C)O)s1)CCC2 (stereo not drawn) [Example 135, N-(amino(2-(2-hydroxypropan-2-yl)thiazol-5-yl)(oxo)-λ^6-sulfaneylidene)-2-(5-isopropyl-2,3-dihydro-1H-inden-4-yl)acetamide] | 1 to 5 µM
CC(C)c1cc(-c2ccc3ccccc3c2)cc(C(C)C)c1CC(=O)N=S(N)(=O)c1ccc(CN(C)C)cc1 (stereo not drawn) [Example 136, N-(amino(4-((dimethylamino)methyl)phenyl)(oxo)-λ^6-sulfaneylidene)-2-(2,6-diisopropyl-4-(naphthalen-2-yl)phenyl)acetamide] | 0.2 to 1 µM
CC(C)c1cc(-c2ccc3c(c2)CCOC3)cc(C(C)C)c1CC(=O)N=S(N)(=O)c1sc(C(C)(C)O)nc1CO (stereo not drawn) [Example 137, N-(amino(4-(hydroxymethyl)-2-(2-hydroxypropan-2-yl)thiazol-5-yl)(oxo)-λ^6-sulfaneylidene)-2-(4-(isochroman-6-yl)-2,6-diisopropylphenyl)acetamide] | 0.2 to 1 µM

Next, values leading:

IC50 | Structure (SMILES)
0.04 to 0.2 µM | COCc1cc(C(C)C)c(CC(=O)N=S(N)(=O)c2cnc(C(C)(C)O)s2)c(C(C)C)c1 (stereo not drawn) [Example 108, N-(amino(2-(2-hydroxypropan-2-yl)thiazol-5-yl)(oxo)-λ^6-sulfaneylidene)-2-(2,6-diisopropyl-4-(methoxymethyl)phenyl) acetamide]
0.04 to 0.2 µM | COCc1cc(C(C)C)c(CC(=O)N=S(N)(=O)c2cnc(C(C)(C)O)s2)c(C(C)C)c1F (stereo not drawn) [Example 109, N-(amino(2-(2-hydroxypropan-2-yl)thiazol-5-yl)(oxo)-λ^6-sulfaneylidene)-2-(3-fluoro-2,6-diisopropyl-4-(methoxymethyl)phenyl) acetamide]
0.2 to 1 µM | CC(C)c1cc(-c2ccc3ccccc3c2)cc(C(C)C)c1CC(=O)N=S(N)(=O)c1ncc(C(C)(C)O)s1 (stereo not drawn) [Example 110, N-(amino(5-(2-hydroxypropan-2-yl)thiazol-2-yl)(oxo)-λ^6-sulfaneylidene)-2-(2,6-diisopropyl-4-(naphthalen-2-yl)phenyl)acetamide]
0.04 to 0.2 µM | COCc1cc(C(C)C)c(CC(=O)N=S(N)(=O)c2ncc(C(C)(C)O)s2)c(C(C)C)c1 (stereo not drawn) [Example 111, N-(amino(5-(2-hydroxypropan-2-yl)thiazol-2-yl)(oxo)-λ^6-sulfaneylidene)-2-(2,6-diisopropyl-4-(methoxymethyl)phenyl) acetamide]
0.2 to 1 µM | CC(C)c1cc(-c2ccc(Cl)c(Cl)c2)cc(C(C)C)c1CC(=O)N=S(N)(=O)c1cnc(C(C)(C)O)s1 (stereo not drawn) [Example 112, N-(amino(2-(2-hydroxypropan-2-yl)thiazol-5-yl)(oxo)-λ^6-sulfaneylidene)-2-(3′,4′-dichloro-3,5-diisopropyl-[1,1′-biphenyl]-4-yl)acetamide]
0.008 to 0.04 µM | CC(C)c1cc(-c2ccc3ccccc3c2)cc(C(C)C)c1CC(=O)N=S(N)(=O)c1cnc(C(C)(C)O)s1 (stereo not drawn) [Example 113, N-(amino(2-(2-hydroxypropan-2-yl)thiazol-5-yl)(oxo)-λ^6-sulfaneylidene)-2-(2,6-diisopropyl-4-(naphthalen-2-yl)phenyl)acetamide]
0.2 to 1 µM | CC(C)c1c(F)c(C#N)cc(C2CC2)c1CC(=O)N=S(N)(=O)c1sc(C(C)(C)O)nc1CO (stereo not drawn) [Example 115, N-(amino(4-(hydroxymethyl)-2-(2-hydroxypropan-2-yl)thiazol-5-yl)(oxo)-λ^6-sulfaneylidene)-2-(4-cyano-6-cyclopropyl-3-fluoro-2-isopropylphenyl)acetamide]
0.04 to 0.2 µM | CC(C)c1cc(-c2ccc3c(c2)OC(F)(F)O3)cc(C(C)C)c1CC(=O)N=S(N)(=O)c1ncc(C(C)(C)O)s1 (stereo not drawn) [Example 117, N-(amino(5-(2-hydroxypropan-2-yl)thiazol-2-yl)(oxo)-λ^6-sulfaneylidene)-2-(4-(2,2-difluorobenzo[d][1,3]dioxol-5-yl)-2,6-diisopropylphenyl)acetamide]
0.2 to 1 µM | CC(C)c1cc(-c2ccc3c(c2)OC(F)(F)O3)cc(C(C)C)c1CC(=O)N=S(N)(=O)c1cnc(C(C)(C)O)s1 (stereo not drawn) [Example 118, N-(amino(2-(2-hydroxypropan-2-yl)thiazol-5-yl)(oxo)-λ^6-sulfaneylidene)-2-(4-(2,2-difluorobenzo[d][1,3]dioxol-5-yl)-2,6-diisopropylphenyl)acetamide]
0.2 to 1 µM | CC(C)c1ccc(F)c(C(C)C)c1CC(=O)N=S(N)(=O)c1nc(C(C)(C)O)cs1 (stereo not drawn) [Example 119, N-(amino(4-(2-hydroxypropan-2-yl)thiazol-2-yl)(oxo)-λ^6-sulfaneylidene)-2-(3-fluoro-2,6-diisopropylphenyl)acetamide]
0.04 to 0.2 µM | Cc1sc(S(N)(=O)=NC(=O)Cc2c(C(C)C)ccc(F)c2C(C)C)cc1C(C)(C)O (stereo not drawn) [Example 129, N-(amino(4-(2-hydroxypropan-2-yl)-5-methylthiophen-2-yl)(oxo)-λ^6-sulfaneylidene)-2-(3-fluoro-2,6-diisopropylphenyl)acetamide]
